Key:
σ (non-selective) = assay: Radioligand binding assay, σ receptors; conditions: test compound 1×10^−6M; [3H]DTG; rat cerebral cortex
Protocol: (§1) Specific ligand binding to the receptors is defined as the difference between the total binding and the non-specific binding determined in the presence of an excess of unlabelled ligand.
(§2) The results are expressed as a percent of control specific binding ((measured specific binding/control specific binding)×100%) obtained in the presence of the test compounds. The compounds were tested for their affinity to receptors at a concentration of 1×10^−6M.
(§3) Conditions and methodology of in vitro tests are given by reference to the literature in Table 1, and the results of tests for representative compounds are given in Table 2 (dopaminergic receptors D2 and D3), in Table 3 (dopaminergic receptors D1 and D4.4), in Table 4 (serotoninergic receptors 5-HT1A, 5-HT2A, 5-HT6, 5-HT7), in table 5 (serotoninergic receptors 5-HT2C), in Table 6 (sigma o receptors), in Table 7 (adrenergic receptors α1, histaminergic receptors H1 and muscarinic receptors M3), in Table 8 (adrenergic receptors α2C) and in Table 9 (serotonin transporter receptors SERT).

α1 (non-selective) = assay: Radioligand binding assay, adrenergic α1 receptors; conditions: test compound 1×10^−6M; [3H]prazosin; rat cerebral cortex
Protocol: as §1, §2, §3

[1] = molecular target: T1, hERG potassium channels (KCNH2 gene, expressed in CHO cells) (Homo sapiens, UniProt Q12809); assay: Ability to block hERG potassium channel (electrophysiology, IonWorks Quattro); type: cell-based; conditions: cloned hERG in CHO cells; test pulse +40 mV; concentration not given
T1 construct: expressed in transfected cells; host or cells: CHO cells
T1 sequence (Q12809 whole entry): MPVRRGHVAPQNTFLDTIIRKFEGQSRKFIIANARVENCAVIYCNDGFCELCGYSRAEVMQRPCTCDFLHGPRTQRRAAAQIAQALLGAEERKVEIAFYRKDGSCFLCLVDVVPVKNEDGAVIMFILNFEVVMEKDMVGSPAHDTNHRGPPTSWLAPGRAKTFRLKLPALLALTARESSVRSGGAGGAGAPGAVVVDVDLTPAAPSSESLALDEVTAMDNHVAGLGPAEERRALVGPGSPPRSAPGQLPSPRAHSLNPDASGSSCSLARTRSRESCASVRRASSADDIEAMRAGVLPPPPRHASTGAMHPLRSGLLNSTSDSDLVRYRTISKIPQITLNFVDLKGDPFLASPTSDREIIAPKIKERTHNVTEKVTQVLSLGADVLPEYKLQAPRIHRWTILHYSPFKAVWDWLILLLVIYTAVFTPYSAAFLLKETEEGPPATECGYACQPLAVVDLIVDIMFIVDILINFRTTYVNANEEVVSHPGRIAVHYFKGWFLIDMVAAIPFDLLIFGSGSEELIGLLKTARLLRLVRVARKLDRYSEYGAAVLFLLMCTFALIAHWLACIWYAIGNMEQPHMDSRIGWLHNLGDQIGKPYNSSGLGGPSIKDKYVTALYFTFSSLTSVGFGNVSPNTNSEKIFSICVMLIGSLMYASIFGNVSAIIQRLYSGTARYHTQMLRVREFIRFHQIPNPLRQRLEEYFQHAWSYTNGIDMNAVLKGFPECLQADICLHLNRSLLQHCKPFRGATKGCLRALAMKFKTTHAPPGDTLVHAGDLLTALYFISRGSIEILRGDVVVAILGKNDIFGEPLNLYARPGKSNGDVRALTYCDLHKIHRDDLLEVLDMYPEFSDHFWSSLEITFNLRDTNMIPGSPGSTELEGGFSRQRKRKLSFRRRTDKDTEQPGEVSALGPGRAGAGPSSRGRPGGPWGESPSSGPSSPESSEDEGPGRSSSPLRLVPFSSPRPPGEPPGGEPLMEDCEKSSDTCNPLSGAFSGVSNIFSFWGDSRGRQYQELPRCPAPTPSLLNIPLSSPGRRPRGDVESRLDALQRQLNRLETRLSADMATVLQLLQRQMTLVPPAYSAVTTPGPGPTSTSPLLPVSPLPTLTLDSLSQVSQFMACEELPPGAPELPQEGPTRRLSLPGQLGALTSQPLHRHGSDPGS
Protocol: Ability to Block hERG Potassium Channel Ability to block hERG potassium channels was determined using the electrophysiological method and cloned hERG potassium channels (KCNH2 gene, expressed in CHO cells) as biological material. The effects were evaluated using IonWorks™ Quattro system (MDS-AT).
hERG current was elicited using a pulse pattern with fixed amplitudes (conditioning pre-pulse: −80 mV for 25 ms; test pulse: +40 mV for 80 ms) from a holding potential of 0 mV. hERG current was measured as a difference between the peak current at 1 ms after the test step to +40 mV and the steady-state current at the end of the step to +40 mV.
Data acquisition and analyses were performed using the lonWorks Quattro™ system operation software (version 2.0.2; Molecular Devices Corporation, Union City, Calif.). Data were corrected for leak current.
The hERG block was calculated as: % Block=(1−I TA/IControl)×100%, where IControl and ITA were the currents elicited by the test pulse in control and in the presence of a test compound, respectively.

D2S (h) = molecular target: T2, D2S (h) (Homo sapiens, UniProt P14416); assay: Radioligand binding assay, dopaminergic receptor D2; conditions: test compound 1×10^−6M; [3H]methyl-spiperone; human recombinant (HEK-293 cells)
T2 construct: expressed in transfected cells; host or cells: HEK-293 cells
T2 sequence (P14416 1-414 isoform P14416-2): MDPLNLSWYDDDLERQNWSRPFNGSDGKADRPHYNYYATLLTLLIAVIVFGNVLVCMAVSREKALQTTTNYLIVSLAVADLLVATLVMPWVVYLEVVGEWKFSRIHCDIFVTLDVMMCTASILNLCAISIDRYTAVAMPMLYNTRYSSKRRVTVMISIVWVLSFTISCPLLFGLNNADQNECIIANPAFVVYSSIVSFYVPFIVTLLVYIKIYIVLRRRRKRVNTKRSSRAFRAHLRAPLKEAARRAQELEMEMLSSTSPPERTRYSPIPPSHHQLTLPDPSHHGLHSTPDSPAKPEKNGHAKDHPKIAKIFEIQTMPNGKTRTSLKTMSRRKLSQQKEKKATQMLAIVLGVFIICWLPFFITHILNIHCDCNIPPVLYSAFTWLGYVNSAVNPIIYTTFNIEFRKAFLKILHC
Protocol: as §1, §2, §3

D3 (h) = molecular target: T3, D3 (h) (Homo sapiens, UniProt P35462); assay: Radioligand binding assay, dopaminergic receptor D3; conditions: test compound 1×10^−6M; [3H]methyl-spiperone; human recombinant (CHO cells)
T3 construct: expressed in transfected cells; host or cells: CHO cells
Protocol: as §1, §2, §3

D1 (h) = molecular target: T4, D1 (h) (Homo sapiens, UniProt P21728); assay: Radioligand binding assay, dopaminergic receptor D1; conditions: test compound 1×10^−6M; [3H]SCH 23390; human recombinant (CHO cells)
T4 construct: expressed in transfected cells; host or cells: CHO cells
T4 sequence (P21728 whole entry): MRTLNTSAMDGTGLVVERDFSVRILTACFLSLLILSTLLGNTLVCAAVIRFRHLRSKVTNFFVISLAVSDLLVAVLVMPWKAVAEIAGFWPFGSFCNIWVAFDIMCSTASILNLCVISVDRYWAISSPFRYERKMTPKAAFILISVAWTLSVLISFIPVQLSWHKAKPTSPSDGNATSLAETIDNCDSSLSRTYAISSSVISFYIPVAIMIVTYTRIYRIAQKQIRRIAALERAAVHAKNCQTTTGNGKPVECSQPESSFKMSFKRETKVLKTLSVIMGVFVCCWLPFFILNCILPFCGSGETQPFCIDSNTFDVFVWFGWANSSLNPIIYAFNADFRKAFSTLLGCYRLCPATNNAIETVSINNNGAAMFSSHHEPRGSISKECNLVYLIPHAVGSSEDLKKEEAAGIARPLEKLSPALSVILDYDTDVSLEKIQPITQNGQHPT
Protocol: as §1, §2, §3

D4.4 (h) = molecular target: T5, D4.4 (h) (Homo sapiens, UniProt P21917); assay: Radioligand binding assay, dopaminergic receptor D4.4; conditions: test compound 1×10^−6M; [3H]methyl-spiperone; human recombinant (CHO cells)
T5 construct: expressed in transfected cells; host or cells: CHO cells
T5 sequence (P21917 1-419): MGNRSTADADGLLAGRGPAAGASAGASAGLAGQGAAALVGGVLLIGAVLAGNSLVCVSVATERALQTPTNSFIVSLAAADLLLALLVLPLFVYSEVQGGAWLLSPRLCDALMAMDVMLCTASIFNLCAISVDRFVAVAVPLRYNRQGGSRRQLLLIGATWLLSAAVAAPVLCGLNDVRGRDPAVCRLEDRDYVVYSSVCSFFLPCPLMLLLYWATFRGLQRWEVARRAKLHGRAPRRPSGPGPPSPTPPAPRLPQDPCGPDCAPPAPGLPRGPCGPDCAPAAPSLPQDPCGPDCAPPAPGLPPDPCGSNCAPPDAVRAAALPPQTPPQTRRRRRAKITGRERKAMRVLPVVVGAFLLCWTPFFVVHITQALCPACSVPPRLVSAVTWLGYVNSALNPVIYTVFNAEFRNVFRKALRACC
Protocol: as §1, §2, §3

5-HT1A (h) = molecular target: T6, 5-HT1A (h) (Homo sapiens, UniProt P08908); assay: Radioligand binding assay, serotoninergic receptor 5-HT1A; conditions: test compound 1×10^−6M; [3H]8-OH-DPAT; human recombinant (HEK-293 cells)
T6 construct: expressed in transfected cells; host or cells: HEK-293 cells
T6 sequence (P08908 1-422): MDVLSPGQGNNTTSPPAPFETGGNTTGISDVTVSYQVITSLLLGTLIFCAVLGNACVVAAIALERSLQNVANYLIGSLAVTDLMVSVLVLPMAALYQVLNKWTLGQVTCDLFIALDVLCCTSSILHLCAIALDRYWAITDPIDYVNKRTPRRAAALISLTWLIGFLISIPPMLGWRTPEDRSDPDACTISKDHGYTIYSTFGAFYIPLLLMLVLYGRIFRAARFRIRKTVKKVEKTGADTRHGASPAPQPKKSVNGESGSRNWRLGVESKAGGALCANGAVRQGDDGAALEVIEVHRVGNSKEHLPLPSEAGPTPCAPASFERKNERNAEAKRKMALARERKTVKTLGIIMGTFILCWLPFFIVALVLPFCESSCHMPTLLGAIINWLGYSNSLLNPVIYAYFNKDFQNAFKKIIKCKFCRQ
Protocol: as §1, §2, §3

5-HT2A (h) = molecular target: T7, 5-HT2A (h) (Homo sapiens, UniProt P28223); assay: Radioligand binding assay, serotoninergic receptor 5-HT2A; conditions: test compound 1×10^−6M; [3H]ketanserin; human recombinant (HEK-293 cells)
T7 construct: expressed in transfected cells; host or cells: HEK-293 cells
Protocol: as §1, §2, §3

5-HT6 (h) = molecular target: T8, 5-HT6 (h) (Homo sapiens, UniProt P50406); assay: Radioligand binding assay, serotoninergic receptor 5-HT6; conditions: test compound 1×10^−6M; [3H]LSD; human recombinant (CHO cells)
T8 construct: expressed in transfected cells; host or cells: CHO cells
T8 sequence (P50406 whole entry): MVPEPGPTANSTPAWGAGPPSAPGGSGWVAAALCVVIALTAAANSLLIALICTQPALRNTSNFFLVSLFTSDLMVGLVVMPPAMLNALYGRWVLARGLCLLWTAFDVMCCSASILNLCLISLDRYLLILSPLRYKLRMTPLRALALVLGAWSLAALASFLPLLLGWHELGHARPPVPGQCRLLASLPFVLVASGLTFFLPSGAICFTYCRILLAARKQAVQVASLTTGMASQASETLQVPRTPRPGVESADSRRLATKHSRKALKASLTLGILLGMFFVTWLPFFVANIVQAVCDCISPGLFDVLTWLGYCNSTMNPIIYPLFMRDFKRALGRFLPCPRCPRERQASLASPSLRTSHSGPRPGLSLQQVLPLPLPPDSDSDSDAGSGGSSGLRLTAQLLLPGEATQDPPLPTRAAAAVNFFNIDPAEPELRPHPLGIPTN
Protocol: as §1, §2, §3

5-HT7 (h) = molecular target: T9, 5-HT7 (h) (Homo sapiens, UniProt P34969); assay: Radioligand binding assay, serotoninergic receptor 5-HT7; conditions: test compound 1×10^−6M; [3H]LSD; human recombinant (CHO cells)
T9 construct: expressed in transfected cells; host or cells: CHO cells
T9 sequence (P34969 whole entry): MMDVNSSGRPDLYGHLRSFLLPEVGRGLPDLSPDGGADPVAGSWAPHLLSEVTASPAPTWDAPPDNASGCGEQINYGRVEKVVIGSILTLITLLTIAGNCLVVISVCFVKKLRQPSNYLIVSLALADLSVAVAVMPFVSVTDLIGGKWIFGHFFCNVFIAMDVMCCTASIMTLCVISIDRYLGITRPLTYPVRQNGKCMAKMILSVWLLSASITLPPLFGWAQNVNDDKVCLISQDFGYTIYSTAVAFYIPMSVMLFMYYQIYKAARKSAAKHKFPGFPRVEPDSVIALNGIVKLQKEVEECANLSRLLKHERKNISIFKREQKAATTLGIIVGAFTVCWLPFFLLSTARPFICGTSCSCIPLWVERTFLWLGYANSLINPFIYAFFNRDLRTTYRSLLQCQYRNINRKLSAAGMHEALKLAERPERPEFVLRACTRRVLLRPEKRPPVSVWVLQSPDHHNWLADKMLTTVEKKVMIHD
Protocol: as §1, §2, §3

5-HT2C (h) = molecular target: T10, 5-HT2C (h) (Homo sapiens, UniProt P28335); assay: Radioligand binding assay, serotoninergic receptor 5-HT2C; conditions: test compound 1×10^−6M; [3H]mesulergine; human recombinant (HEK-293 cells)
T10 construct: expressed in transfected cells; host or cells: HEK-293 cells
T10 sequence (P28335 33-458): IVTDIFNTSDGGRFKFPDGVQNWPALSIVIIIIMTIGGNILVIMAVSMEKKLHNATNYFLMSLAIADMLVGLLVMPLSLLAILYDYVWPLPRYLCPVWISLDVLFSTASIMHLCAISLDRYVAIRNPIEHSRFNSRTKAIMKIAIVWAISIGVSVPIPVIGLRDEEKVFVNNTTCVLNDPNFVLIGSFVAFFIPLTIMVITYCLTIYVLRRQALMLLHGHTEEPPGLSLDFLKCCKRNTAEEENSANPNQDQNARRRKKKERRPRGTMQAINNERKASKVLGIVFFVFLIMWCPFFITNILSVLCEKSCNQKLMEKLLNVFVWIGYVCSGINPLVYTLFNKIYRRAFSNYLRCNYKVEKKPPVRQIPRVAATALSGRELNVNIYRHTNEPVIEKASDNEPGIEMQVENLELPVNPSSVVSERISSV
Protocol: as §1, §2, §3

H1 (h) = molecular target: T11, H1 (h) (Homo sapiens, UniProt P35367); assay: Radioligand binding assay, histaminergic H1 receptor; conditions: test compound 1×10^−6M; [3H]pyrilamine; human recombinant (HEK-293 cells)
T11 construct: expressed in transfected cells; host or cells: HEK-293 cells
T11 sequence (P35367 whole entry): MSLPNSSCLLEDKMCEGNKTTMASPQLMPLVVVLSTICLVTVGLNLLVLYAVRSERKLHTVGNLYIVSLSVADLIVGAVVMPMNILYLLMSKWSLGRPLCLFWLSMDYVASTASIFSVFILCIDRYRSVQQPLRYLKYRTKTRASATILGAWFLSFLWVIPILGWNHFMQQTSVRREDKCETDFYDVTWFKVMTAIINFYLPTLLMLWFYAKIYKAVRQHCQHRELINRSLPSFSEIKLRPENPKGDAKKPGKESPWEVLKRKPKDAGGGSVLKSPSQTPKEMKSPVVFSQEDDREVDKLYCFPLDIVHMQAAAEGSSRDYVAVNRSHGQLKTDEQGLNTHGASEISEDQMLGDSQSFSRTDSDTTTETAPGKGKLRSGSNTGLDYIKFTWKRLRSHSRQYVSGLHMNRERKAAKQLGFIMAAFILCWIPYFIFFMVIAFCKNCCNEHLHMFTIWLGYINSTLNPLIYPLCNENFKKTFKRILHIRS
Protocol: as §1, §2, §3

M3 (h) = molecular target: T12, M3 (h) (Homo sapiens, UniProt P20309); assay: Radioligand binding assay, muscarinic M3 receptor; conditions: test compound 1×10^−6M; [3H]4-DAMP; human recombinant (CHO cells)
T12 construct: expressed in transfected cells; host or cells: CHO cells
T12 sequence (P20309 whole entry): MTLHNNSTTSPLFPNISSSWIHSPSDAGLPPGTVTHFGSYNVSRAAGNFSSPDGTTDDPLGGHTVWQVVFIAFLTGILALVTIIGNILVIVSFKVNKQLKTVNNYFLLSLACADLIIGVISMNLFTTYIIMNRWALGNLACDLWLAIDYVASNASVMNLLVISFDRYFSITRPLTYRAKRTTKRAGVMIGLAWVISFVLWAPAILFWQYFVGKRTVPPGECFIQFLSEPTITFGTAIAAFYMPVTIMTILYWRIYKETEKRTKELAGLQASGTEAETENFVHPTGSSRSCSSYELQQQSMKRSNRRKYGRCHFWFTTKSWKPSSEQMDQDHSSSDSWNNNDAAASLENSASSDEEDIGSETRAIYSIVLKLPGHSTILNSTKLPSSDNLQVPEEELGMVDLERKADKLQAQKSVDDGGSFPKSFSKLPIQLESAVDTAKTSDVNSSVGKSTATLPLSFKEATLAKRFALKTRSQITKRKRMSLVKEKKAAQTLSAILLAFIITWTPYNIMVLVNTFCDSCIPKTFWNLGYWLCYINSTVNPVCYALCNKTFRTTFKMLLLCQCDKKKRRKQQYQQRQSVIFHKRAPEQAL
Protocol: as §1, §2, §3

α2C (h) = molecular target: T13, α2C (h) (Homo sapiens, UniProt P18825); assay: Radioligand binding assay, adrenergic receptor α2C; conditions: test compound 1×10^−6M; [3H]RX 821002; human recombinant (CHO cells)
T13 construct: expressed in transfected cells; host or cells: CHO cells
T13 sequence (P18825 1-462): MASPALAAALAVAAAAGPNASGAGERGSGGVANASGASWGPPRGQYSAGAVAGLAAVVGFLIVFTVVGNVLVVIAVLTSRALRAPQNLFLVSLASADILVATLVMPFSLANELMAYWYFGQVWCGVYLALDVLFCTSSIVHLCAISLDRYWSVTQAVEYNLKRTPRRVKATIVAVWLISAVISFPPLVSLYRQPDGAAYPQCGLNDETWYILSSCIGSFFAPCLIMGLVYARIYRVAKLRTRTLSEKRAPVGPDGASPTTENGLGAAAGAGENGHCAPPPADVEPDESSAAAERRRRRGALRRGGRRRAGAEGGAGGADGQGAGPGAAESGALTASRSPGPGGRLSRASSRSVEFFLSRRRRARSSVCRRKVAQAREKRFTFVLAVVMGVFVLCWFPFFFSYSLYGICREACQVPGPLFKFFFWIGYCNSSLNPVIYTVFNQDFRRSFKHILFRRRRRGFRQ
Protocol: as §1, §2, §3

SERT (h) = molecular target: T14, SERT (h) (Homo sapiens, UniProt P31645); assay: Radioligand binding assay, serotonin transporter (SERT); conditions: test compound 1×10^−6M; [3H]imipramine; human recombinant (CHO cells)
T14 construct: expressed in transfected cells; host or cells: CHO cells
T14 sequence (P31645 whole entry): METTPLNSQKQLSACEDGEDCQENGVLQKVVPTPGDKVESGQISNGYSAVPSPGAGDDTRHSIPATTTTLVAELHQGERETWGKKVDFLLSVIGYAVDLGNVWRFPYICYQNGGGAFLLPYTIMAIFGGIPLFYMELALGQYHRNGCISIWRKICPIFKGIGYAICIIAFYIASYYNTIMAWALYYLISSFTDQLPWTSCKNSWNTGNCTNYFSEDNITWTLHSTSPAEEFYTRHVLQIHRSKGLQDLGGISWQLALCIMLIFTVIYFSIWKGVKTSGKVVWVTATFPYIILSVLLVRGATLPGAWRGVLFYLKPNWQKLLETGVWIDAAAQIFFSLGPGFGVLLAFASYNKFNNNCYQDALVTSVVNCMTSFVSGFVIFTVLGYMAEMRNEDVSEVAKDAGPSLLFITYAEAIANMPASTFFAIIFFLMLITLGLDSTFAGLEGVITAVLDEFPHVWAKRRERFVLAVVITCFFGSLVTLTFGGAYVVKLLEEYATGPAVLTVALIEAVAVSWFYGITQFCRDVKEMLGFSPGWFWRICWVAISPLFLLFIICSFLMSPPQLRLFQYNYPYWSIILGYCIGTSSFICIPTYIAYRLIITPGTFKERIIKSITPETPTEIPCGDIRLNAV
Protocol: as §1, §2, §3

| Compound | σ [%] (σ (non-selective)) | α1 [%] (α1 (non-selective)) | hERG [%] (% Block) [1] | D2 [%] (D2S (h)) | D3 [%] (D3 (h)) | D1 [%] (D1 (h)) | D4.4 [%] (D4.4 (h)) | 5-HT1A [%] (5-HT1A (h)) | 5-HT2A [%] (5-HT2A (h)) | 5-HT6 [%] (5-HT6 (h)) | 5-HT7 [%] (5-HT7 (h)) | 5-HT2C [%] (5-HT2C (h)) | H1 [%] (H1 (h)) | M3 [%] (M3 (h)) | α2C [%] (α2C (h)) | SERT [%] (SERT (h)) |
| --- | --- | --- | --- | --- | --- | --- | --- | --- | --- | --- | --- | --- | --- | --- | --- | --- |
| Cc1cccc(S(=O)(=O)Nc2cccc(CNCCOc3cccc4[nH]ccc34)c2)c1 [Compound 49, N-[3-[[2-(1H-indol-4-yloxy)ethylamino]methyl]phenyl]-3-methyl-benzenesulphonamide] | 79 | 59 | 2 | – | – | – | – | – | – | – | – | – | – | – | – | – |
| O=S(=O)(Nc1cccc(CNCCOc2cccc3[nH]ccc23)c1)c1cccc2ccccc12 [Compound 51, N-[3-[[2-(1H-indol-4-yloxy)ethylamino]methyl]phenyl]naphthalene-1-sulphonamide] | 76 | 34 | 1 | – | – | – | – | – | – | – | – | – | – | – | – | – |
| O=S(=O)(Nc1cccc(CNCCOc2cccc3[nH]ccc23)c1)c1ccc2ccccc2c1 [Compound 52, N-[3-[[2-(1H-indol-4-yloxy)ethylamino]methyl]phenyl]naphthalene-2-sulphonamide] | 79 | 41 | 2 | – | – | – | – | – | – | – | – | – | – | – | – | – |
| CN(CCCc1noc2cc(F)ccc12)Cc1cccc(NS(=O)(=O)c2ccc(C(C)(C)C)cc2)c1 [Compound 72, 4-tert-butylo-N-[3-[[3-(6-fluoro-1,2-benzoxazol-3-yl)propylmethylamino]methyl]-phenyl]benzenesulphonamide] | 80 | 77 | – | 93 | 63 | 45 | 60 | 30 | 87 | 99 | 93 | 23 | 64 | 25 | 81 | 42 |
| N-[3-[[3-(6-fluoro-1,2-benzoxazol-3-yl)propylamino]methyl]phenyl]naphthalene-1-sulphonamide [Compound 54] | 50 | 48 | – | 94 | 76 | 27 | 54 | 43 | 80 | 88 | 90 | 17 | 7 | 2 | 32 | 42 |
